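Growth conditions: 96-well plates. Treatment: test compound, 48 hours, 5 concentrations. Analysis: linear interpolation between bracketing concentrations; unreached endpoints set to highest concentration. Here, GI50 denotes the concentration required for 50% inhibition of growth. TGI: total growth inhibition.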
How the values were obtained:
Test in all cases: NCI anticancer screen, dose series, 48 h
786-0 renal = system: 786-0 renal
HCC-2998 colon = system: HCC-2998 colon
HCT-116 colon = system: HCT-116 colon
HL-60(TB) leukemia = system: HL-60(TB) leukemia
MCF7 breast = system: MCF7 breast
MDA-MB-435 = system: MDA-MB-435
NCI-H23 lung = system: NCI-H23 lung
RPMI-8226 leukemia = system: RPMI-8226 leukemia
SK-OV-3 ovarian = system: SK-OV-3 ovarian
UACC-62 melanoma = system: UACC-62 melanoma

Compound	TGI (786-0 renal) [µM]	TGI (HCC-2998 colon) [µM]	TGI (HCT-116 colon) [µM]	TGI (HL-60(TB) leukemia) [µM]	TGI (MCF7 breast) [µM]	TGI (MDA-MB-435) [µM]	TGI (NCI-H23 lung) [µM]	TGI (RPMI-8226 leukemia) [µM]	TGI (SK-OV-3 ovarian) [µM]	TGI (UACC-62 melanoma) [µM]	GI50 (786-0 renal) [µM]	GI50 (HCC-2998 colon) [µM]	GI50 (HCT-116 colon) [µM]	GI50 (HL-60(TB) leukemia) [µM]	GI50 (MCF7 breast) [µM]	GI50 (MDA-MB-435) [nM]	GI50 (NCI-H23 lung) [µM]	GI50 (RPMI-8226 leukemia) [µM]	GI50 (SK-OV-3 ovarian) [µM]	GI50 (UACC-62 melanoma) [µM]
COc1ccc(CC2NCCc3cc(OC)c(OC)cc32)cc1Br (stereo unspecified)	> 100	34.6	36.9	28.1	> 100	60	85.7	50.2	> 100	> 77.5										
O=C1CC2c3ccccc3CCC2c2ccccc21 (stereo unspecified)	79.8	50.5	42.1	> 100	> 100	98.6	69	> 100	> 100	69.6										
CCn1c(SCc2ccc(C)cc2)nnc1-c1nn(-c2ccc(Cl)cc2Cl)c(-c2ccc(Cl)cc2)c1C	12.2	13.2	10.6	5.47	11.4	11.5	12.5	3.05	8.18	10.6	2.69	2.35	0.573	1.6	2.26	2850	2.24	0.464	2.58	2.02
COc1cc(C(=O)c2cc(C)c3[nH]c4ccc(C)cc4c3c2C)cc(OC)c1OC	3.17	> 100		< 0.01	> 100	0.136	> 100	> 100	> 100	> 100	< 0.01	< 0.01	< 0.01	< 0.01	< 0.01	< 10	< 0.01	< 0.01	< 0.0307	< 0.01
O=C(O)C1C(Br)(c2ccccc2)C1(Br)c1ccccc1 (stereo unspecified)	> 100	53.7	> 100	> 100	> 100	> 100	> 100	74.1	81	64.3										
COc1cc2[nH]c(C(=O)c3cc(OC)c(OC)c(OC)c3)c(N)c2cc1C#CC1CC1	> 100	> 100	85.3	22	> 100	1.17	> 100	42.5	> 100	> 100	3.25	20.1	2.06	3.36	1.85	332	7.12	3.28	3.42	20.1
CN(C)C(=O)[C@H](O)[C@H](Cc1ccccc1)NC(=O)c1cc2cc(Cl)ccc2[nH]1	> 85.2	38.1	> 87	54.1	> 83.3	70.1	> 100	66.6	97.8	32.7	27.3	16.3	25	19.1	22.1	22900	25.8	19.5	29.1	13.5
ClCC[N+]12CC[N+](CCCl)(CC1)C2	> 100	> 100	> 100	> 100	> 100	> 100	> 100	> 100	> 100	> 100										
ClCc1cccc(Cn2cnc3nc(Cl)nc(Cl)c32)c1	1.76	2.9	0.731	2.38	1.38	3.16	2.56	4.15	22	2.22	0.697	1.52	0.285	1.16	0.505	1650	1.29	1.72	8.41	1.02
O=c1cc(NC2CCN(CCCc3ccccc3)CC2)c2cc(Cl)ccc2o1	21.2	27.3	16.5	49.3	26.9	18.1	30.3	43.4	29.8	29.8	6.55	13	4.02	20.5	9.42	5260	14.6	16.5	16.1	15.1
Nc1ccn(C2CCC(CO)O2)c(=O)n1 (stereo unspecified)	> 1000	> 1000	> 1000	> 1000	> 1000	> 1000	> 1000	> 1000	> 1000	> 1000		> 1000	> 1000		> 1000		> 1000	> 1000	> 1000	> 1000
O=C(CCC1OCCO1)Nc1cc(NCc2ccccc2)ccc1OCc1ccccc1	> 100	> 100	> 100	97.3	> 100	63.9	> 100	> 100	> 100	> 100										
C/C(N=NC(=S)N(C)C)=C1\C=CC=CN1O	> 52.2	> 44.9	> 100	> 53	> 100	> 100	> 100	> 70.4	> 100	> 93										
COc1cc(NC(C)CCCN)c2nccc(C)c2c1 (stereo unspecified)	38	38.7	29.3	21.1	33.2	30.4	> 100	60.7	58.5	35.8										
CCCCON(OC(=O)c1ccc2ccc3cccc4ccc1c2c34)C(C)=O	38.2	> 100	52.3	44.2	68.9	50.4	35.5	80.4	> 100	47.2	19.6	38.5	22.4	19.2	26.3	22300	17	25.5	40.1	21.5

— PubChem BioAssay (NCI)
